34 molecules from patent publication US6284768A, “Src family SH2 domain inhibitors” (Boehringer Ingelheim Pharmaceuticals, Inc., priority 1999, dated 2001) can be followed below.

The structures appear in SMILES notation.

Test [1] has as its target T1, p56lck GST-SH2 (lck SH2 domain) (Homo sapiens, UniProt P06239).
T1 construct: GST (N)
Description: Receptor-ligand equilibrium binding constants by surface plasmon resonance (biosensor), lck SH2 domain. Particulars: Table 1, compounds of formula (II). Background: SPR reads the build-up and loss of mass on a sensor chip optically.

The test system of test [2] is Inter-leukin 2 (IL-2) production by activated Human Primary T Lymphocytes. The experiment in a line: Primary T cell assay: inhibition of IL-2 production by activated human primary CD4 positive T lymphocytes. In kind it is cell-based. Particulars: Homo sapiens, CD4 positive, Table 5; mean IC50 value; CD4 positive T cells activated with anti-CD3/anti-CD28, IL-2 by ELISA; read-out: IC50 (blocking IL-2 production). The procedure:
Summary of Primary T Cell Assay.
Inhibitors of the lck SH2 domain were assayed for their ability to block Inter-leukin 2 (IL-2) production by activated Human Primary T Lymphocytes. Peripheral blood mononuclear cells were isolated from whole blood by centrifugation in ficoll-Pague partitioning medium. CD4 positive cells were purified using negative selection. […] The compounds, at the appropriate dilutions, were added, and the cells were incubated for 60 minutes at 37° C. The CD4 positive T cells were then activated by the addition of anti-CD3 (60 ng/mL), anti CD28 (500 ng/mL) and goat anti mouse IgG coated beads, and incubated overnight at 37° C. The cells were pelleted, and the supernatents assayed for IL-2 by ELISA.
As SH2 domain containing proteins are intracellular, any therapeutic agent must be able to cross biological membranes. […] These characteristics may be quantified by observing inhibition in IL-2 production in human blood CD4 positive T-lymphocytes after T cell receptor and CD28 cross-linking.
On the technique in general: An ELISA detects its analyte on a solid surface through an enzyme-linked reagent.

T1 sequence (P06239 127-224 limits assumed): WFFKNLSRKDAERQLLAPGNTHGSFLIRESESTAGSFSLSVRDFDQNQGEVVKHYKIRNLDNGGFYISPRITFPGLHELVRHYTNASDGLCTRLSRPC

With `COc1ccc(Cn2ccc(C)c(NC(=O)[C@H](Cc3ccc(C(C)(C)C(=O)O)cc3)NC(=O)C(C)(C)c3ccc(CC(C)C)cc3)c2=O)cc1` [Compound 124], the Kd (as a rule, the free concentration of one partner at which half of the binding sites on the other are occupied at equilibrium, for simple one-to-one binding) in test [1] is 1.5 µM. Besides, the IC50 (in general, the concentration that gives 50% inhibition) in test [2] was 42 µM.

Molecule `COc1ccc(Cn2ccc(C)c(NC(=O)[C@H](Cc3ccc(C(C)(C)C(=O)O)cc3)NC(=O)[C@@H](C)c3ccc4ccccc4c3)c2=O)cc1` [Compound 46] returned a Kd in test [1] of 2.3 µM. Further, the IC50 in test [2] was determined as 58 µM.

`CCOc1ccc(Cn2ccc(C)c(NC(=O)C(Cc3ccc(C(C)(C)C(=O)O)cc3)NC(=O)C(C)(C)c3ccc4ccccc4c3)c2=O)cc1` (centres unmarked) [Compound 139] displayed an equilibrium dissociation constant (Kd) in test [1] of 2.9 µM. For the same molecule, the IC50 in test [2] was 56 µM.

For the molecule `Cc1ccn(CCCc2ccccc2)c(=O)c1NC(=O)C(Cc1ccc(C(C)(C)C(=O)O)cc1)NC(=O)Cc1cccc2ccccc12` (centres unmarked) [Compound 182], in test [1], the affinity, expressed as Kd, was 2.1 µM. Besides, in test [2], the IC50 is 64 µM.

The molecule `COc1ccc(Cn2ccc(C)c(NC(=O)[C@H](Cc3ccc(C(C)(C)C(=O)O)cc3)NC(=O)C(C)(C)c3ccc(C(C)C)cc3)c2=O)cc1` [Compound 118] displayed a Kd in test [1] of 0.61 µM. Besides, the concentration for half-maximal inhibition (IC50) in test [2] was 61 µM.

As for `CCC(C(=O)N[C@@H](Cc1ccc(C(C)(C)C(=O)O)cc1)C(=O)Nc1c(C)ccn(Cc2ccc(OC)cc2)c1=O)c1ccc2ccccc2c1` (some centres unmarked) [Compound 109], binding in test [1] was put at a Kd of 0.33 µM. Further, the IC50 in test [2] turned out to be 78 µM.

In turn, `Cc1ccn(CCc2ccccc2)c(=O)c1NC(=O)C(Cc1ccc(C(C)(C)C(=O)O)cc1)NC(=O)Cc1ccc2ccccc2c1` (centres unmarked) [Compound 200] gave a dissociation constant (Kd) in test [1] of 2.2 µM. Moreover, the IC50 in test [2] stood at 87 µM.

`COc1ccc(Cn2ccc(C)c(NC(=O)[C@H](Cc3ccc(C(C)(C)C(=O)O)cc3)NC(=O)Cc3cccc4ccccc34)c2=O)cc1` [Compound 2, 3-[2'-(S)-(1"-Naphthylacetyl)amino-3'-[4'"-(1'"-carboxy-1'"-methyl)ethyl]benzene]propanoylamino-1-(4-methoxybenzyl)-4-methyl-2-pyridone] came in with a dissociation constant Kd in test [1] of 0.57 µM. Besides, in test [2], the IC50 came out at 96 µM.

`COc1ccc(Cn2ccc(C)c(NC(=O)C(Cc3ccc(C(C)(C)C(=O)O)cc3)NC(=O)Cc3ccc(C(C)(C)C)cc3)c2=O)cc1` (centres unmarked) [Compound 173] displayed a Kd in test [1] of 0.31 µM. For the same molecule, in test [2], the half-inhibitory concentration (IC50) turned out to be 93 µM.

Consider `Cc1ccn(Cc2ncc(C(F)(F)F)cc2Cl)c(=O)c1NC(=O)[C@H](Cc1ccc(C(C)(C)C(=O)O)cc1)NC(=O)Cc1ccc2ccccc2c1` [Compound 129], for which the Kd in test [1] amounted to 2.8 µM. For the same molecule, in test [2], the half-inhibitory concentration (IC50) is 107 µM.

For the molecule `CCOc1ccc(Cn2ccc(C)c(NC(=O)C(Cc3ccc(C(C)(C)C(=O)O)cc3)NC(=O)Cc3cccc4ccccc34)c2=O)cc1` (centres unmarked) [Compound 140], in test [1], binding was characterised by a dissociation constant (Kd) of 0.63 µM. For the same molecule, the IC50 in test [2] came out at 82 µM.

For the molecule `Cc1ccn(Cc2ccc3c(c2)OCO3)c(=O)c1NC(=O)C(Cc1ccc(C(C)(C)C(=O)O)cc1)NC(=O)Cc1ccc2ccccc2c1` (centres unmarked) [Compound 155], the dissociation constant (Kd) in test [1] is 0.37 µM. The half-inhibitory concentration (IC50) in test [2] worked out at 76 µM.

As to `CCc1cn(Cc2ccc(OC)cc2)c(=O)c(NC(=O)C(Cc2ccc(C(C)(C)C(=O)O)cc2)NC(=O)Cc2ccc3ccccc3c2)c1C` (centres unmarked) [Compound 222], in test [1], the Kd came to 1.2 µM. Further, the IC50 in test [2] was determined as 69 µM.

`CCC(CC)(C(=O)NC(Cc1ccc(C2(C(=O)O)CCCC2)cc1)C(=O)Nc1c(C)ccn(Cc2ccc(OC)cc2)c1=O)c1ccc2ccccc2c1` (centres unmarked) [Compound 125] registered a Kd in test [1] greater than 15 µM. Further, in test [2], the half-inhibitory concentration (IC50) came out at 29 µM.

Consider `COc1ccc(Cn2ccc(C)c(NC(=O)[C@H](Cc3ccc(C(C)(C)C(=O)O)cc3)NC(=O)Cc3c(C)cc(C)cc3C)c2=O)cc1` [Compound 117], for which binding in test [1] was characterised by a dissociation constant (Kd) of 0.37 µM. For the same molecule, the IC50 in test [2] came out at 108 µM.

For the molecule `COc1ccc(Cn2ccc(C)c(NC(=O)[C@H](Cc3ccc(C(C)(C)C(=O)O)cc3)NC(=O)Cc3ccc(NCc4ccccc4)cc3)c2=O)cc1` [Compound 130], binding in test [1] was put at a Kd of 0.84 µM. Further, in test [2], the concentration for half-maximal inhibition (IC50) turned out to be 181 µM.

With `CCOc1ccc(Cn2ccc(C)c(NC(=O)C(Cc3ccc(C(C)(C)C(=O)O)cc3)NC(=O)C(C)(C)c3cccc4ccccc34)c2=O)cc1` (centres unmarked) [Compound 141], binding in test [1] was characterised by a dissociation constant (Kd) of 8.8 µM. For the same molecule, the IC50 in test [2] is 49 µM.

The molecule `COc1ccc(Cn2ccc(C)c(NC(=O)[C@H](Cc3ccc(C(C)(C)C(=O)O)cc3)NC(=O)C(C)c3ccc(CC(C)C)cc3)c2=O)cc1` (some centres unmarked) [Compound 112] had a Kd in test [1] of 1.5 µM. In addition, the IC50 in test [2] was 60 µM.

Molecule `COc1ccc(Cn2c(C)cc(C)c(NC(=O)[C@H](Cc3ccc(C(C)(C)C(=O)O)cc3)NC(=O)Cc3ccc4ccccc4c3)c2=O)cc1` [Compound 219] showed an equilibrium dissociation constant (Kd) in test [1] of 2.2 µM. The IC50 in test [2] was determined as 70 µM.

`COc1ccc(Cn2ccc(C)c(NC(=O)C(Cc3ccc(C(C)(C)C(=O)O)cc3)NC(=O)COc3cccc4ccccc34)c2=O)cc1` (centres unmarked) [Compound 174] showed an equilibrium dissociation constant (Kd) in test [1] of 1 µM. Further, in test [2], the IC50 came to 67 µM.

`CCCCCCn1ccc(C)c(NC(=O)C(Cc2ccc(C(C)(C)C(=O)O)cc2)NC(=O)Cc2ccc3ccccc3c2)c1=O` (centres unmarked) [Compound 137] had a dissociation constant Kd in test [1] of 0.51 µM. Also, the concentration for half-maximal inhibition (IC50) in test [2] was determined as 75 µM.

The molecule `CCCCCCCn1ccc(C)c(NC(=O)C(Cc2ccc(C(C)(C)C(=O)O)cc2)NC(=O)Cc2ccc3ccccc3c2)c1=O` (centres unmarked) [Compound 138] yielded an equilibrium dissociation constant (Kd) in test [1] of 0.83 µM. For the same molecule, the IC50 in test [2] stood at 64 µM.

In turn, `Cc1ccn(Cc2ccc(C(F)(F)F)cn2)c(=O)c1NC(=O)[C@H](Cc1ccc(C(C)(C)C(=O)O)cc1)NC(=O)Cc1ccc2ccccc2c1` [Compound 128] came in with a dissociation constant (Kd) in test [1] of 1.6 µM. In test [2], the IC50 was 207 µM.

`Cc1ccn(CC2CCCCC2)c(=O)c1NC(=O)C(Cc1ccc(C(C)(C)C(=O)O)cc1)NC(=O)Cc1ccc2ccccc2c1` (centres unmarked) [Compound 195] yielded a dissociation constant (Kd) in test [1] of 1.1 µM. In test [2], the 50% inhibitory concentration (IC50) was 63 µM.

With `Cc1ccn(CC2(c3ccccc3)CC2)c(=O)c1NC(=O)C(Cc1ccc(C(C)(C)C(=O)O)cc1)NC(=O)Cc1cccc2ccccc12` (centres unmarked) [Compound 213], the dissociation constant (Kd) in test [1] was 2 µM. Moreover, in test [2], the half-inhibitory concentration (IC50) is 166 µM.

Consider `CCC(CC)(C(=O)O)c1ccc(C[C@H](NC(=O)Cc2ccc3ccccc3c2)C(=O)Nc2c(C)ccn(Cc3ccc(OC)cc3)c2=O)cc1` [Compound 106], for which the Kd in test [1] was 0.47 µM. For the same molecule, in test [2], the half-maximal inhibitory concentration (IC50) turned out to be 82 µM.

In test [1], `Cc1ccn(Cc2ccc3c(c2)OCO3)c(=O)c1NC(=O)C(Cc1ccc(C(C)(C)C(=O)O)cc1)NC(=O)C(C)(C)c1ccc2ccccc2c1` (centres unmarked) [Compound 154] had a Kd of 1.2 µM. For the same molecule, the IC50 in test [2] worked out at 45 µM.

In test [1], `CCCCCCn1ccc(C)c(NC(=O)C(Cc2ccc(C(C)(C)C(=O)O)cc2)NC(=O)Cc2ccc(OC)cc2)c1=O` (centres unmarked) [Compound 208] yielded a Kd of 0.8 µM. Also, in test [2], the 50% inhibitory concentration (IC50) came to 279 µM.

Turning to `Cc1ccn(CC2CCCCC2)c(=O)c1NC(=O)C(Cc1ccc(C(C)(C)C(=O)O)cc1)NC(=O)C(C)(C)c1ccc2ccccc2c1` (centres unmarked) [Compound 196], in test [1], the equilibrium dissociation constant (Kd) amounted to 5.4 µM. In test [2], the concentration for half-maximal inhibition (IC50) came to 29 µM.

Molecule `CCCCCCn1ccc(C)c(NC(=O)C(Cc2ccc(C(C)(C)C(=O)O)cc2)NC(=O)COc2ccccc2)c1=O` (centres unmarked) [Compound 205] returned a Kd in test [1] of 1.9 µM. Moreover, in test [2], the IC50 stood at 136 µM.

`COc1ccc(Cn2ccc(C)c(NC(=O)C(Cc3ccc(C4(C(=O)O)CCCC4)cc3)NC(=O)Cc3ccc4ccccc4c3)c2=O)cc1` (racemic) [Compound 108]: the Kd in test [1] was 2.8 µM. The IC50 in test [2] amounted to 69 µM.

Take `Cc1ccn(Cc2ccccc2Oc2ccccc2)c(=O)c1NC(=O)C(Cc1ccc(C(C)(C)C(=O)O)cc1)NC(=O)Cc1ccc2ccccc2c1` (centres unmarked) [Compound 156]: in test [1], the Kd was determined as 4 µM. Moreover, in test [2], the half-maximal inhibitory concentration (IC50) stood at 46 µM.

For the molecule `COc1ccc(Cn2ccc(C)c(NC(=O)C(Cc3ccc(C(C)(C)C(=O)O)cc3)NC(=O)C(C)(C)c3ccc(-c4ccccc4)cc3)c2=O)cc1` (centres unmarked) [Compound 159], binding in test [1] was put at a Kd of 1.4 µM. The concentration for half-maximal inhibition (IC50) in test [2] came to 25 µM.

In test [1], `COc1ccc(Cn2ccc(C)c(N(C)C(=O)C(Cc3ccc(C(C)(C)C(=O)O)cc3)NC(=O)Cc3ccc4ccccc4c3)c2=O)cc1` (centres unmarked) [Compound 151] gave a Kd greater than 200 µM. The half-inhibitory concentration (IC50) in test [2] was determined as 67 µM.
